Reference: patent publication US20250002695A1, “COMPOSITIONS COMPRISING CATIONIC ALPHA-1,6-GLUCAN DERIVATIVE AND ALPHA-1,3-GLUCAN” (Nutrition & Biosciences USA 4, Inc., priority 2021, published 2025)
In brackets after ≈: the same amount, converted by molar mass. Read-outs that look alike come from different tables or passages of the source.

Legend:
Experiment in all cases: Minimum Inhibitory Concentration (MIC) test
Assay type in all cases: cell-based
[1] = system: Candida albicans (ATCC 10231); conditions: read-out: Minimum Inhibitory Concentration
Description: (§1) Antimicrobial activity assessment of alpha-1,6-glucan ether compounds herein and other compounds were carried out using a standard MIC protocol. Each test compound was evaluated in two sets, one at 50-5000 ppm (high MIC actives) and the other at 3.125-100 ppm (low MIC actives). All active samples, with the exception of chitosan, were dissolved in DI water at a concentration of 1% w/v for the […] set; chitosan was instead dissolved in water acidified to pH 3.5 with hydrochloric acid. Each test compound was then serially diluted to concentrations of 0.4%, 0.2%, 0.1%, 0.04%, 0.02% and 0.01% (w/v). For the 3.125-100 ppm set, all test compounds were prepared similarly at a concentration 0.1% w/v, and then serially diluted to concentrations of 0.05%, 0.025%, 0.0125%, 0.00625% and 0.003125% (w/v). Bacteria inocula were prepared by diluting overnight cultures 1:20 in trypticase soy broth media (TSB). Yeast and mold were prepared by diluting overnight culture or monthly stock (1×10^8 cells per mL) 1:20 in potato dextrose broth media (PDB). 96-well plates were used in this test. First, 180 μL of plating media was added to each well. Next, each well received 20 μL water (control) or test compound at a specified concentration according to concentration range to be tested. Each sample was tested in triplicate. Lastly, each well received 20 μL of bacteria or fungi inoculum. Bacterial plates were incubated at 30° C. for 24 hours. Yeast and mold plates were incubated at 25° C.; yeast plates were incubated for 24 hours and mold plates were incubated for 7 days.

[2] = system: Aspergillus brasiliensis (ATCC 16404); conditions: ATCC16404, 168 h, read-out: Minimum Inhibitory Concentration
Description: as §1

[3] = system: Pseudomonas putida (ATCC 49128); conditions: read-out: Minimum Inhibitory Concentration
Description: as §1

[4] = system: Escherichia coli (ATCC 8739); conditions: read-out: Minimum Inhibitory Concentration
Description: as §1

[5] = system: Staphylococcus aureus (ATCC 6538); conditions: read-out: Minimum Inhibitory Concentration
Description: as §1

[6] = system: Staphylococcus epidermidis (ATCC 12228); conditions: read-out: Minimum Inhibitory Concentration
Description: as §1

[7] = system: Pseudomonas aeruginosa (ATCC 15442); conditions: read-out: Minimum Inhibitory Concentration
Description: as §1

[8] = system: Burkholderia cepacia (ATCC 25416); conditions: read-out: Minimum Inhibitory Concentration
Description: as §1

[9] = system: Enterobacter gergoviae (ATCC 33028); conditions: Pluralibacter gergoviae, read-out: Minimum Inhibitory Concentration
Description: as §1

[10] = system: Pseudomonas aeruginosa (ATCC 9027); conditions: read-out: Minimum Inhibitory Concentration
Description: as §1

[11] = system: Klebsiella pneumoniae (ATCC 13883); conditions: read-out: Minimum Inhibitory Concentration
Description: as §1

`CCCCCCCCCCCC[N+](C)(C)C.[Cl-]` [Comp. 11, Dodecyltrimethylammonium chloride] gave an MIC ([1]; ATCC10231, 24 h) of 200 µg/mL, an MIC [2] of 1000 µg/mL and an MIC ([3]; ATCC49128, 24 h) of 500 µg/mL. It also gave an MIC ([4]; ATCC8739, 24 h) of 200 µg/mL, an MIC ([5]; ATCC6538, 24 h) of 200 µg/mL and an MIC ([6]; ATCC12228, 24 h) of 100 µg/mL. It also gave an MIC ([7]; ATCC15442, 24 h) of 500 µg/mL, an MIC ([8]; ATCC25416, 24 h) of 1000 µg/mL and an MIC ([9]; ATCC33028, 24 h) of 500 µg/mL. The MIC ([10]; ATCC9027, 24 h) was 500 µg/mL and the MIC ([11]; ATCC13883, 24 h) was 500 µg/mL.
Work on `CCCCCCCCCCCC(=O)N[C@@H](CCCNC(=N)N)C(=O)OCC` [Comp. 13, Lauroyl arginine ethyl ester] yielded an MIC ([1]; ATCC10231, C. albicans ATCC 10231, 25° C., 24 hours) of 100 µg/mL (≈ 260 µM), an MIC ([2]; A. brasiliensis ATCC 16404, 25° C., 7 days) of 100 µg/mL (≈ 260 µM) and an MIC ([3]; ATCC49128, P. putida ATCC 49128, 30° C., 24 hours) of 25 µg/mL (≈ 65 µM). The MIC ([4]; ATCC8739, E. coli ATCC 8739, 30° C., 24 hours) was 50 µg/mL (≈ 130 µM), the MIC ([5]; ATCC6538, S. aureus ATCC 6538, 30° C., 24 hours) was 12.5 µg/mL (≈ 32.5 µM) and the MIC ([6]; ATCC12228, S. epidermidis ATCC 12228, 30° C., 24 hours) was 12.5 µg/mL (≈ 32.5 µM). For the same compound, the MIC ([7]; ATCC15442, P. aeruginosa ATCC 15442, 30° C., 24 hours) was 50 µg/mL (≈ 130 µM), the MIC ([8]; ATCC25416, B. cepacia ATCC 25416, 30° C., 24 hours) was 100 µg/mL (≈ 260 µM) and the MIC ([9]; ATCC33028, E. gergoviae ATCC 33028, 30° C., 24 hours) was 100 µg/mL (≈ 260 µM). It also gave an MIC ([10]; ATCC9027, P. aeruginosa ATCC 9027, 30° C., 24 hours) of 50 µg/mL (≈ 130 µM) and an MIC ([11]; ATCC13883, K. pneumoniae ATCC 13883, 30° C., 24 hours) of 50 µg/mL (≈ 130 µM).
